What was measured:
[1] = target: Sphingosine 1-phosphate receptor 2 (Homo sapiens, UniProt O95136); assay: Antagonist activity at S1PR2 in human SW620/5-FU cells assessed as reduction of DPD-catalyzed 5-FU degradation by measuring intracellular 5-FU level at 20 uM measured after 24 hrs by HPLC-UV analysis; type: functional, cell-based; details: filed as antagonist
[2] = Downregulation of S1PR2 mRNA expression level in DPD expressed human HCT-116 cells at 20 uM measured after 24 hrs by qRT-PCR analysis; type: functional
[3] = Half life in Sprague-Dawley rat plasma at 1 mg/kg, iv measured up to 24 hrs by HPLC-MS/MS analysis; type: ADME, organism-based; details: in vivo
SW620/5-FU [4] = assay: Antitumor activity against human SW620/5-FU cells xenografted in SPF nude mouse assessed as reduction in tumor weight at 7.5 mg/kg, iv QD for 21 days in presence of 5-fluorouracil; type: functional; parameters: scale not given: the % may be the effect or the level left; details: time 21 day
SW620/5-FU [5] = assay: Antitumor activity against human SW620/5-FU cells xenografted in SPF nude mouse assessed as tumor growth inhibition at 15 mg/kg, iv QD for 21 days and measured every 4 days in presence of 5-fluorouracil; type: functional; details: 504 h, time 21 day, read-out: TGI
SW620/5-FU [6] = assay: Antitumor activity against human SW620/5-FU cells xenografted in SPF nude mouse assessed as reduction in tumor weight at 30 mg/kg, iv QD for 21 days in presence of 5-fluorouracil; type: functional; parameters: scale not given: the % may be the effect or the level left; details: time 21 day
[7] = Downregulation of DPD expression in tumor of SPF nude mouse xenografted with human SW620/5-FU cells at 30 mg/kg, iv QD for 21 days in presence of 5-fluorouracil by Western blot analysis; type: functional; details: time 21 day
SW620/5-FU [8] = assay: Downregulation of DPD expression level in human SW620/5-FU cells measured after 12 hrs by Western blot analysis; type: functional, cell-based; details: dose 5-40 µM, DDE = dose-dependent effect
[9] = Toxicity in SPF nude mouse xenografted with human SW620/5-FU cells assessed as change in body weight at 7.5 mg/kg, iv QD for 21 days and measured every 4 days in presence of 5-fluorouracil; type: organism-based; details: in vivo, 504 h, time 21 day
HCT-116 = assay: Antitumor activity against DPD expressed human HCT-116 cells xenografted in SPF nude mouse assessed as tumor growth inhibition at 15 mg/kg, iv QD for 20 days and measured every 4 days in presence of 5-fluorouracil; type: functional; details: HCT-116, 480 h, time 20 day, read-out: TGI

Sequence of Sphingosine 1-phosphate receptor 2 (O95136 whole entry): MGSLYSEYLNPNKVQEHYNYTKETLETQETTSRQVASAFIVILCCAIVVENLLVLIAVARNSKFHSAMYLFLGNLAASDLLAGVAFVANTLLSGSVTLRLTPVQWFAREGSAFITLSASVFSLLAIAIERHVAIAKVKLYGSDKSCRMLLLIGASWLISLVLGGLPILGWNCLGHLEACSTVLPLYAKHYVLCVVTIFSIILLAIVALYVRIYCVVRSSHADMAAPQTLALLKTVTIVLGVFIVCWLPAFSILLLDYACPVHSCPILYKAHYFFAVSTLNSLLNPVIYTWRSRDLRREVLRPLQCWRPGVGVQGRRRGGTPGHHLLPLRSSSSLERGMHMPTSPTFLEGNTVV

## Cn1ncc2c(-c3ccc(F)cc3)cc(NNC(=O)Nc3cc(Cl)nc(Cl)c3)nc21
[1]
  Activity: 7.8 µM
[2]
  Activity: 25%
[3]
  t1/2: 4.4 h
SW620/5-FU [4]
  Activity: 47.79%
SW620/5-FU [5]
  inhibition in vivo at 15 mg/kg: 52%
SW620/5-FU [6]
  Activity: 60.81%
[7]
  Activity: 0.05
SW620/5-FU [8]
  Activity: Dde
[9]
  Activity: Non-Toxic
HCT-116
  inhibition in vivo at 15 mg/kg: 70.1%
